Reference: US8394592B2, “Methods for assessing cancer susceptibility to carcinogens in tobacco products” (The Board of Regents of the University of Texas System, priority 2006, dated 2013)
Where “and” joins values, the source holds several entries; their conditions need not be identical. Equal entries are not always repeated.

System: peripheral blood lymphocytes
Experiment: Cytokinesis-block micronucleus (CBMN) assay, NNK-treated lymphocyte cultures of lung cancer cases and controls
Format: cell-based, human
Parameters: Control Subjects, % with ≧5 NNK-induced MN / Control Subjects, % with 0 or 2 NNK-induced NPBs / Control Subjects, % with 3 or 5 NNK-induced NPBs / Control Subjects, % with 1 NNK-induced NBUDs: concentration or dose not given beside the values; Control Subjects, % with 3 or 4 NNK-induced MN: tested at 0.24 mM
Conditions: for NNK-induced NPBs, Mean ± SE / NNK-induced NPBs, Median / NNK-induced MN, Mean ± SE / NNK-induced MN, Median / NNK-induced NBUDs, Mean ± SE / NNK-induced NBUDs, Median: Control, 0.24 mM NNK
Procedure: The CBMN test was performed using the cytochalasin B technique described by Fenech and Morley (22) and following recommendations from The International Collaborative Project on Micronucleus Frequency in Human Populations (HUMN Project) to measure MN, NPBs and NBUDs in untreated cells and NNK-treated cells (27). Duplicate lymphocyte cultures were prepared for each study subject. Each culture contained 2.0×10^6 cells in 5 mL RPMI 1640 medium supplemented with 100 U/mL penicillin, 100 μg/mL streptomycin, 10% fetal bovine serum, and 2 mM L-glutamine (Gibco-Invitrogen, Carlsbad, Calif.) and 1% phytohemagglutinin (Remel, Lenexa, Kans.). For the cultures treated with NNK, 24 hours after initiation, the PBLs were centrifuged and the supernatant growth medium was removed and reserved. The PBLs were resuspended in 5 mL of serum-free RPMI 1640 medium supplemented with 0.24 mM NNK (a dose previously used by us and others (23-26) (CAS No. 64091-91-4, National Cancer Institute, Midwest Carcinogen Repository, Kansas City, Mo.; purity>98%) and incubated at 37° C. in the presence of 5% CO2 for 2 hours.
Next, the PBLs were washed twice with serum-free RPMI 1640, transferred to clean tubes and re-incubated for […] in the reserved supernatant. At 44 hours after initiation, cells were blocked in cytokinesis by adding cytochalasin B (Sigma, St. Louis, Mo.; final concentration 4 µg/mL). Similarly, cultures for the determination of spontaneous damage (untreated cells) were handled in the same manner, with the exception of treatment with NNK. The total incubation time for all cultures was 72 hours. After incubation, the cells were fixed in 3:1 methanol:glacial acetic acid, dropped onto clean microscopic slides, air-dried and stained with Giemsa stain. For each sample, 1000 binucleated cells were scored blindly using a Nikon E-400 light optical microscope following the scoring criteria outlined by HUMN Project (2,22,27); the numbers of MN, NPBs, and NBUDs per 1000 binucleated cells were recorded. For quality control, 20% of the slides were randomly selected and blindly rescored and the results compared with the original scoring.

[1] = MN/1000 binucleated cells, 130 controls
[2] = MN/1000 binucleated cells, 139 cases
[3] = lymphocytes from patients with lung cancer vs controls
[4] = per 1000 binucleated cells, 130 controls
[5] = per 1000 binucleated cells, 139 cases

## CN(CCCC(=O)c1cccnc1)N=O [NNK, 4-(methylnitrosamino)-1-(3-pyridyl)-1-butanone]
Females
  NNK-induced NPBs, Mean ± SE: 2.68 ± 0.19 per 1000 binucleated cells
  NNK-induced NPBs, Median: 2.0 per 1000 binucleated cells
History of Alcohol Use No
  NNK-induced MN, Mean ± SE: 2.54 ± 0.15 per 1000 binucleated cells
  NNK-induced MN, Median: 3.00 per 1000 binucleated cells
  NNK-induced NBUDs, Mean ± SE: 0.14 ± 0.04 per 1000 binucleated cells
  NNK-induced NBUDs, Median: 0.00 per 1000 binucleated cells
  NNK-induced NPBs, Mean ± SE: 2.40 ± 0.13 per 1000 binucleated cells
  NNK-induced NPBs, Median: 2.00 per 1000 binucleated cells
History of Alcohol Use Yes
  NNK-induced MN, Mean ± SE: 2.61 ± 0.15 per 1000 binucleated cells
  NNK-induced MN, Median: 2.00 per 1000 binucleated cells
  NNK-induced NBUDs, Mean ± SE: 0.11 ± 0.04 per 1000 binucleated cells
  NNK-induced NBUDs, Median: 0.00 per 1000 binucleated cells
  NNK-induced NPBs, Mean ± SE: 2.32 ± 0.12 per 1000 binucleated cells
  NNK-induced NPBs, Median: 2.00 per 1000 binucleated cells
Males
  NNK-induced MN, Mean ± SE: 2.63 ± 0.11 per 1000 binucleated cells
  NNK-induced MN, Median: 3.0 per 1000 binucleated cells
  NNK-induced NBUDs, Mean ± SE: 0.12 ± 0.03 per 1000 binucleated cells
  NNK-induced NBUDs, Median: 0.0 per 1000 binucleated cells
  NNK-induced NPBs, Mean ± SE: 2.27 ± 0.10 per 1000 binucleated cells
  NNK-induced NPBs, Median: 2.0 per 1000 binucleated cells
Overall
  NNK-induced MN, Mean ± SE: 2.62±0.10 per 1000 binucleated cells and 2.62 ± 0.1 per 1000 binucleated cells
  NNK-induced MN, Median: 3.0 per 1000 binucleated cells and 3 per 1000 binucleated cells
  NNK-induced NBUDs, Mean ± SE: 0.12±0.03 per 1000 binucleated cells
  NNK-induced NBUDs, Median: 0.0 per 1000 binucleated cells and 0 per 1000 binucleated cells
  NNK-induced NPBs, Mean ± SE: 2.38±0.09 per 1000 binucleated cells
  NNK-induced NPBs, Median: 2.0 per 1000 binucleated cells and 2 per 1000 binucleated cells
Years smoked > 32
  NNK-induced MN, Mean ± SE: 2.69 ± 0.12 per 1000 binucleated cells
  NNK-induced MN, Median: 3.0 per 1000 binucleated cells
  NNK-induced NBUDs, Mean ± SE: 0.13 ± 0.04 per 1000 binucleated cells
  NNK-induced NBUDs, Median: 0.0 per 1000 binucleated cells
  NNK-induced NPBs, Mean ± SE: 2.39 ± 0.09 per 1000 binucleated cells
  NNK-induced NPBs, Median: 2.0 per 1000 binucleated cells
Years smoked ≦ 32
  NNK-induced MN, Mean ± SE: 2.33 ± 1.02 per 1000 binucleated cells
  NNK-induced MN, Median: 2.0 per 1000 binucleated cells
  NNK-induced NBUDs, Mean ± SE: 0.06 ± 0.04 per 1000 binucleated cells
  NNK-induced NBUDs, Median: 0.0 per 1000 binucleated cells
  NNK-induced NPBs, Mean ± SE: 2.36 ± 0.19 per 1000 binucleated cells
  NNK-induced NPBs, Median: 2.0 per 1000 binucleated cells
[1]
  Control Subjects, % with 1 or 2 NNK-induced MN: 49% and 49.2%
  Control Subjects, % with 3 or 4 NNK-induced MN: 44.6%
  Control Subjects, % with ≧5 NNK-induced MN: 6% and 6.2%
  Control Subjects, No. with 1 or 2 NNK-induced MN: 64
  Control Subjects, No. with 3 or 4 NNK-induced MN: 58
  Control Subjects, No. with ≧5 NNK-induced MN: 8
[2]
  Case Patients, % with 1 or 2 NNK-induced MN: 4% and 3.6%
  Case Patients, % with 3 or 4 NNK-induced MN: 56.1%
  Case Patients, No. with 1 or 2 NNK-induced MN: 5
  Case Patients, No. with 3 or 4 NNK-induced MN: 78
  Case Patients, No. with ≧5 NNK-induced MN: 56
[3]
  Increase in NNK-induced MN frequency, lung cancer patients over controls: 1.6 fold
  Increase in NNK-induced NBUD frequency, lung cancer patients over controls: 8.9 fold
  Increase in NNK-induced NPB frequency, lung cancer patients over controls: 3.4 fold
[4]
  Control Subjects, % with 0 NNK-induced NBUDs: 87% and 86.9%
  Control Subjects, % with 0 or 2 NNK-induced NPBs: 65% and 64.6%
  Control Subjects, % with 1 NNK-induced NBUDs: 11.5%
  Control Subjects, % with 3 or 5 NNK-induced NPBs: 35.4%
  Control Subjects, No. with 0 NNK-induced NBUDs: 113
  Control Subjects, No. with 0 or 2 NNK-induced NPBs: 84
  Control Subjects, No. with 1 NNK-induced NBUDs: 15
  Control Subjects, No. with 3 or 5 NNK-induced NPBs: 46
  Control Subjects, No. with ≧2 NNK-induced NBUDs: 2
  Control Subjects, No. with ≧6 NNK-induced NPBs: 0
[5]
  Case Patients, % with 0 NNK-induced NBUDs: 35% and 34.5%
  Case Patients, % with 1 NNK-induced NBUDs: 42.5%
  Case Patients, % with 3 or 5 NNK-induced NPBs: 10.8%
  Case Patients, No. with 0 NNK-induced NBUDs: 48
  Case Patients, No. with 0 or 2 NNK-induced NPBs: 0
  Case Patients, No. with 1 NNK-induced NBUDs: 59
  Case Patients, No. with 3 or 5 NNK-induced NPBs: 15
  Case Patients, No. with ≧2 NNK-induced NBUDs: 32
  Case Patients, No. with ≧6 NNK-induced NPBs: 124
